Laboratory results: US9763939B2, “Compositions and methods for treating mitochondrial diseases” (BIOVISTA, INC., priority 2012, dated 2017)

Key:
[1] = system: YG8R FRDA mouse neuronal stem cells (NSCs); assay: FAC/BSO oxidative stress insult, cell viability (Presto Blue), YG8R NSCs; assay type: cell-based
Procedure: (§1) EXAMPLE. Primary fibroblast and neuronal stem cell (NSC) cultures from the YG8R FRDA mouse model. The cell cultures are used as a rapid means to test the effectiveness of potential therapies before proceeding to longer-term FRDA mouse model investigations. A parallel assay using YG22R NSCs may be used.
(§2) YG8R fibroblasts and NSCs are treated with increasing concentrations of test compound, and a vehicle-only negative control. Optionally, YG8R fibroblasts and NSCs are treated with a positive control compound, such as 1 μM idebenone. Two hours after the initial treatment, cells are lesioned with […] FAC and 1 mM BSO for 48 hours. Cell viability is then determined using Presto Blue Cell Viability Reagent (Life Technologies) for 24 hours and subsequent colorimetric spectrophotometry. […] Similarly, 1.8 μM tetrindole restored the vehicle-treated FAC/BSO cell viability value of 26% to a value of 53% (p<0.001), relative to the vehicle treated non-insulted cell value as 100%.
Similarly, 1.8 μM tetrindole restored the vehicle-treated FAC/BSO cell viability value of 19% to a value of 40% (p<0.001), relative to the vehicle treated non-insulted cell value as 100%.

[2] = system: human primary fibroblasts from patients suffering from LHON; assay: cells
Procedure: (§3) EXAMPLE. […] Briefly, primary human fibroblasts from patients suffering from Friedreich's ataxia and LHON are lesioned with 100 μM BSO (LHON fibroblasts) or 250 μM BSO (FRDA fibroblasts) respectively, for 48 hours. Apoptosis, toxicity and viability rate of cells are determined using the ApoTox-Glo-Kit (Promega): the reagent for assessing viability and toxicity is applied 1:5 into treatment medium and incubated for 30 min at 37° C. Next, fluorescence is measured at the following wavelength sets: 400EX/505EM (viability) and 485EX/520EM (toxicity). In case of apoptosis measurement the caspase reagent was added 1:2 and incubated at RT for 30 min, the caspase activity (apoptosis) was measured as luminescence
(§4) EXAMPLE. Evaluation of Tetracyclic Pyrazinoindoles, and Pharmaceutically Acceptable Salts Thereof. One or more tetracyclic pyrazinoindoles are applied 2 and 24 hours before BSO treatment and are present throughout the assay. An optional reference compound, such as idebenone may be included for comparison. BSO treated cells without any treatment (BSO group) as well as cells neither treated with BSO nor with any treatment (Vehicle Control (VC) group) serve as controls. Cells are assessed for apoptosis, toxicity and viability immediately after BSO lesion by means of the ApoTox-Glo-assay Kit (Promega). Three independent experiments in four technical replicates are performed for all groups as depicted in Table 1 (different tetracyclic pyrazinoindoles are labeled as Test Items (T.I.1-T.I.2) and an optional positive control Reference Item 1 (R.I.1)):
(§5) BSO generally reduces a cell's protection against oxidative damage. Cells harvested from FRDA and LHON patients generate higher levels of ROS than normal cells. Apoptosis, toxicity and viability rate of cells are determined using the ApoTox-Glo-Kit (Promega): the reagent for assessing viability and toxicity is applied 1:5 into treatment medium and incubated for 30 min at 37° C. Next, fluorescence is measured at the following wavelength sets: 400EX/505EM (viability) and 485EX/520EM (toxicity). In case of apoptosis measurement the caspase reagent is added 1:2 and incubated at RT for 30 min, the caspase activity (apoptosis) was measured as luminescence
(§6) Descriptive statistical analysis was performed. Data are presented as mean±standard error of mean (SEM) in percent of vehicle control, MPP+ lesion and BSO lesion, respectively. Differences between compound-treated groups and controls (vehicle, BSO) are evaluated by means of One-Way ANOVA.
EXAMPLE. […] One vial is thawed and administered 2 and 24 hours before BSO treatment, at concentrations 0.6 μM, 1.8 μM, 5.5 μM and 16 μM. Apoptosis, toxicity and viability rate of cells are determined using the ApoTox-Glo-Kit (Promega). Human primary fibroblasts from patients suffering from LHON are used. Three independent experiments in four technical replicates are performed for all groups. […] Statistical significance is indicated by NS=not significant p>0.1, *=p<0.05, **=p<0.01, ***=p<0.001 as determined by One-Way ANOVA. Data are shown as group mean+/−SEM.
(§7) EXAMPLE. Tetrindole is diluted in DMSO. One vial is thawed and administered 2 and 24 hours before BSO treatment, at concentrations 0.2 μM, 0.6 μM, 1.8 μM and 5.5 μM. Apoptosis, toxicity and viability rate of cells are determined using the ApoTox-Glo-Kit (Promega). Human primary fibroblasts from patients suffering from LHON are used. Three independent experiments in four technical replicates are performed for all groups. […] Statistical significance is indicated by NS=not significant p>0.1, *=p<0.05, **=p<0.01, ***=p<0.001 as determined by One-Way ANOVA. Data are shown as group mean+/−SEM.

[3] = system: YG8R FRDA mouse fibroblasts; assay: FAC/BSO oxidative stress insult, cell viability (Presto Blue), YG8R fibroblasts; assay type: cell-based; conditions: FAC and 1 mM BSO 48 h
Procedure: as §1, §2

[4] = system: human primary fibroblasts from patients suffering from Friedreich's ataxia; assay: cells
Procedure: as §3, §4, §5, §6
EXAMPLE. […] One vial is thawed and administered 2 and 24 hours before BSO treatment, at concentrations 0.6 μM, 1.8 μM, 5.5 μM and 16 μM. Apoptosis, toxicity and viability rate of cells are determined using the ApoTox-Glo-Kit (Promega). Human primary fibroblasts from patients suffering from Friedreich's ataxia are used. Three independent experiments in four technical replicates are performed for all groups. […] Statistical significance is indicated by NS=not significant p>0.1, *=p<0.05, **=p<0.01, ***=p<0.001 as determined by One-Way ANOVA. Data are shown as group mean+/−SEM.
as §7, with “Friedreich's ataxia” for “LHON”

[5] = system: C57BL/6 mice with MOG-induced EAE; assay: MOG-induced Experimental Allergic Encephalomyelitis (MOG-EAE) mouse model, spinal cord histology; assay type: in vivo; conditions: spinal cord H&E histology day 35, pirlindole 30 mg/kg, dexamethasone positive control, dose not given
Procedure: EXAMPLE. Evaluation of anti-inflammatory and direct protection mode of action. Compounds described herein are evaluated in a standard MOG-induced Experimental Allergic Encephalomyelitis (MOG-EAE) mouse model of neurodegeneration to determine whether the compounds protect neurons directly, or via an indirect anti-inflammatory mode of action. EAE is induced in C57BL/6 mice by the single subcutaneous injection of MOG emulsified in Complete Freund's Adjuvant (CFA) on study days 0 and 6, followed by intraperitoneal supplemental immunostimulation with Pertussis Toxin (PT) carried out once at the time of EAE induction and once again 48 hours later. Test animals are observed for 35 days. Histology samples are harvested from the spinal cords of the animals on day 35 and are stained with Hematoxylin & Eosin (H&E). Analysis of the samples comprises two parameters: a) The Severity Score which refers mainly to infiltration by inflammatory cells and b) White Matter Damage (WMD), which refers mainly to axonal degeneration.

[6] = too lipophillic; cannot reach the mitochondria (Edeas M. Pharm Res. 2011); cited from earlier work
[7] = Homo sapiens, Fibroblast, 48 h, read-out: protective effect in relative cell viability

c1cc2c(cc1C1CCCCC1)c1c3n2CCNC3CCC1 (centres unmarked) [tetrindole, 2,3,3a,4,5,6-Hexahydro-8-cyclohexyl-1H-pyrazino[3,2,1-j,k]carbazole]
protection against the oxidative stress insult [1]: significantly protect
viability at 1.8 µM ([1]; Mus musculus, 1.8 μM, vehicle-treated FAC/BSO value 19%, relative to vehicle treated non-insulted cells as 100%, p<0.001): 40%
statistically significant overall cytotoxicity over BSO control [2]: not observed at any dose
viability at 1.8 µM [2, 7]: 122%
statistically significant improvement in apoptosis compared to the BSO group ([2]; all tested doses): not observed at any dose
statistically significant improvement in viability compared to the BSO group ([2]; all tested doses): not observed at any dose
protection against the oxidative stress insult [3]: significantly protect
viability at 1.8 µM ([3]; Mus musculus, Fibroblast, 1.8 μM, vehicle-treated FAC/BSO value 26%, relative to vehicle treated non-insulted cells as 100%, p<0.001): 53%
viability at 1.8 µM [4, 7]: 156%
statistically significant improvement in apoptosis compared to the BSO group ([4]; all tested doses): not observed at any dose
statistically significant overall cytotoxicity over BSO control ([4]; human): not observed at any dose, except the highest dose of 5.5

C[C@@H]1C[C@H]2[C@@H]3CCC4=CC(=O)C=C[C@]4(C)[C@@]3(F)[C@@H](O)C[C@]2(C)[C@@]1(O)C(=O)CO [dexamethasone]
Severity Score (infiltration by inflammatory cells) ([5]; vehicle 2.85±0.66): 1.45±1.09
White Matter Damage (WMD) percentage (axonal degeneration) ([5]; vehicle 74.2±26.1): 24.4±33.3 percentage

vitamin E
permeation of cell membranes [6]: permeates cell membranes poorly
